The subject of assay [1] is Mycobacterium tuberculosis. The experiment in a line: Antituberculosis activity against Mycobacterium tuberculosis H37Rv ATCC 27294 after 2 weeks by microbroth dilution method. Type of assay: functional. Particulars: H37Rv ATCC 27294, 336 h.
Assay [2] deals with Mycobacterium tuberculosis. Briefly: Antituberculosis activity against Mycobacterium tuberculosis H37Rv ATCC 27294 in stationary phase culture at pH 5.8 up to 200 ug/ml after 3 days followed by washout from day 4 to week 4 by microbroth dilution method. The class given is functional, organism-based. (In general: In broth dilution the organism is exposed to a series of concentrations in liquid medium.)

Here are results for 21 compounds from ChEMBL document CHEMBL1177803, “In vitro antituberculosis activities of the constituents isolated from Haloxylon salicornicum” (2010).

≈ marks a conversion by molar mass, not a printed value. Calls of active or inactive are those of the source. The calls are words filed in the database; no cut-off is given here.

Take `OCCCCCCCCCCCCCCCCCCCCC1CCCCC1`: in assay [1], the MIC was 100 µg/mL (≈ 263 µM). Besides, in assay [2], the result was inactive.
In the same order, the values of `OCCCCCCCCCCCCCCCCCCCCCCC1CCCCC1` are 100 µg/mL (≈ 245 µM) and “inactive”.
As for `CCCCCCCCCCCCCCCC(=O)O[C@H]1CC[C@]2(C)[C@H]3CC=C4[C@H]5CC(C)(C)CC[C@]5(C)CC[C@@]4(C)[C@]3(C)CC[C@H]2C1(C)C`, in assay [1], it took 100 µg/mL (≈ 150 µM) to inhibit growth (MIC). In addition, the result in assay [2] was inactive.
For `CC[C@H](/C=C/[C@@H](C)[C@H]1CC[C@H]2[C@@H]3CCC4=C[C@@H](O[C@@H]5O[C@H](CO)[C@@H](O)[C@H](O)[C@H]5O)CC[C@]4(C)[C@H]3CC[C@]12C)C(C)C`, the lowest concentration to inhibit growth in assay [1] (MIC) was 100 µg/mL (≈ 174 µM). Besides, the outcome in assay [2] was inactive.
In turn, `CC[C@H](/C=C/[C@@H](C)[C@H]1CC[C@H]2[C@@H]3CCC4=C[C@@H](O[C@@H]5O[C@@H](C)[C@H](O)[C@@H](O)[C@H]5O)CC[C@]4(C)[C@H]3CC[C@]12C)C(C)C` had an MIC in assay [1] of 50 µg/mL (≈ 89.5 µM). Also, the result in assay [2] was inactive.
In assay [1], `CCC(CC[C@@H](C)[C@H]1CC[C@H]2[C@@H]3CC=C4C=CCC[C@]4(C)[C@H]3CC[C@]12C)C(C)C` (some centres not stated) displayed an MIC of 100 µg/mL (≈ 252 µM). Further, the outcome in assay [2] was inactive.
Take `C[C@H]1[C@H](C)CC[C@]2(C)CC[C@]3(C)C(=CC[C@@H]4[C@@]5(C)CCC[C@H](C)[C@@H]5CC[C@]43C)[C@H]12`: 100 µg/mL (≈ 252 µM) was the least that counted as inhibitory in assay [1] (MIC). Further, the outcome in assay [2] was inactive.
Regarding `CCCCC(O)CCCCCCCCCCCCCCCCCCCC(=O)CCC` (configuration not stated), the minimum inhibitory concentration (MIC) in assay [1] amounted to 100 µg/mL (≈ 235 µM). In assay [2], the outcome was inactive.
As for `CC(C)[C@@H](C)/C=C/[C@@H](C)[C@H]1CC[C@@H]2[C@]1(C)CC=C1[C@]23C=C[C@]2(C[C@@H](O)CC[C@]12C)OO3`, in assay [1], 100 µg/mL (≈ 234 µM) was the least that counted as inhibitory (MIC). In addition, the result in assay [2] was inactive.
Compound `COc1c(O)cc2ccc(=O)oc2c1OC` had an MIC in assay [1] of 100 µg/mL (≈ 450 µM). For the same compound, the outcome in assay [2] was inactive.
As for `CC(C)[C@@H](C)/C=C/[C@@H](C)[C@H]1CC[C@@H]2[C@]1(C)CC[C@H]1[C@]23C=C[C@]2(C[C@@H](O)CC[C@]12C)OO3` [ERGOSTEROL PEROXIDE], the MIC in assay [1] was 100 µg/mL (≈ 233 µM). Also, in assay [2], the result was inactive.
In assay [1], `O=C(/C=C\C=C/CCCCCCCCCCCCCCCCCO)N1CCCCC1` [HALOXYLINE A] returned an MIC of 100 µg/mL (≈ 238 µM). Moreover, the outcome in assay [2] was inactive.
In the same order, the values of `O=C(/C=C\C=C/CCCCCCCCCCCCCCCCCO)N1CCC[C@@H](O)C1` [HALOXYLINE B] are 50 µg/mL (≈ 115 µM) and “inactive”.
`NNC(=O)c1ccncc1` [ISONIAZID]: it took 0.02 µg/mL (≈ 0.146 µM) to inhibit growth in assay [1] (MIC). In addition, the outcome in assay [2] was inactive.
In the same order, the values of `C=C(C)[C@@H]1CC[C@]2(C)CC[C@]3(C)[C@H](CC[C@@H]4[C@@]5(C)CC[C@H](OC(C)=O)C(C)(C)[C@@H]5CC[C@]43C)[C@@H]12` [LUPENYL ACETATE] are 100 µg/mL and “inactive”.
Regarding `C=C(C)[C@@H]1CC[C@]2(C)CC[C@]3(C)[C@H](CC[C@@H]4[C@@]5(C)CC[C@H](O)C(C)(C)[C@@H]5CC[C@]43C)[C@@H]12` [LUPEOL], inhibition of growth in assay [1] (MIC) required 100 µg/mL (≈ 234 µM). In assay [2], the outcome was inactive.
In the same order, the values of `CC[C@H](/C=C/[C@@H](C)[C@H]1CC[C@H]2[C@@H]3CC=C4C[C@@H](O[C@@H]5O[C@H](CO)[C@@H](O)[C@H](O)[C@H]5O)CC[C@]4(C)[C@H]3CC[C@]12C)C(C)C` [STIGMASTEROL GLUCOSIDE] are 50 µg/mL (≈ 87 µM) and “inactive”.
For the compound `CC[C@H](/C=C/[C@@H](C)[C@H]1CC[C@H]2[C@@H]3CC=C4C[C@@H](O)CC[C@]4(C)[C@H]3CC[C@]12C)C(C)C` [STIGMASTEROL], in assay [1], inhibition of growth (MIC) required 100 µg/mL (≈ 242 µM). The result in assay [2] was inactive.
In assay [1], `C[C@H]1[C@H](C)CC[C@]2(C(=O)O)CC[C@]3(C)C(=CC[C@@H]4[C@@]5(C)CC[C@H](O)C(C)(C)[C@@H]5CC[C@]43C)[C@H]12` [URSOLIC ACID] yielded an MIC of 100 µg/mL (≈ 219 µM). In addition, in assay [2], the outcome was inactive.
`CC(=O)O[C@H]1CC[C@]2(C)[C@H]3CC=C4[C@@H]5CC(C)(C)CC[C@]5(C)CC[C@@]4(C)[C@]3(C)CC[C@H]2C1(C)C` [beta-AMYRIN ACETATE] gave an MIC in assay [1] of 100 µg/mL. Also, in assay [2], the result was inactive.
`CC1(C)CC[C@]2(C)CC[C@]3(C)C(=CC[C@@H]4[C@@]5(C)CC[C@H](O)C(C)(C)[C@@H]5CC[C@]43C)[C@@H]2C1` [beta-AMYRIN] showed an MIC in assay [1] of 100 µg/mL (≈ 234 µM). Moreover, the outcome in assay [2] was inactive.

Usually MIC stands for the lowest concentration found to suppress growth. Read a low MIC as a more susceptible organism.
